The values that follow come from patent publication US5922691A, “Crystalline maltotetraosyl glucoside, and its production and use” (Kabushiki Kaisha Hayashibara Seibutsu Kagaku Kenkyujo, priority 1994, dated 1999).

Converted amounts (≈) assume the structure as drawn. Where only a bound is given, the exact number is not on record here.

Data set [1] is described as follows: Hygroscopicity when allowed to stand in a room. The format is physicochemical. The settings on record: for Hygroscopicity: allowed to stand in a room. The protocol: Fifty parts by weight of 98% maltopentaose, a product commercialized by Hayashibara Biochemical Laboratories, Inc., Okayama, Japan, was dissolved in 200 parts by weight of water while heating and the resultant solution was heated to 40° C. and adjusted to pH 7.0, admixed with a non-reducing saccharide-forming enzyme prepared by the method in Experiment A-2 in an amount of 5 units/g maltopentaose, reacted for 24 hours and followed by heating at 100° C. for 20 minutes to inactivate the enzyme. The resultant solution contained about 90% maltotetraosyl glucoside, and the remains are maltopentaose. The solution was adjusted to 0.1N by adding sodium hydroxide, and heated at 100° C. for 2 hours to decompose reducing saccharides. The solution was decolored with activated carbon and desalted with ion-exchange resins (H^+ and OH^- form) to obtain 98% maltotetraosyl glucoside fraction. The fractions were pooled and the solution was concentrated to give a concentration of 60%, placed in a crystallizer and admixed with a crystalline maltotetraosyl glucoside in an amount of 2% as a seed crystal, and the resultant mixture is cooled gradually while stirring for crystallization to form a massecuit. The massecuit thus obtained was separated from molasses to obtain 99.9% hydrous crystalline maltotetraosyl glucoside in the yield against starting material of about 50%.
The anhydrous crystalline maltotetraosyl glucoside can be favorably used as hygroscopic agent, dehydrating agent and chemical raw material, and further utilizable in a variety of compositions including foods, beverages, cosmetics, pharmaceuticals and shaped bodies, similar to hydrous crystalline maltotetraosyl glucoside in Example A-1.

Data set [2] is described as follows: Reducing power by the Somogyi-Nelson method, represented by DE. The format is physicochemical. The following applies: high-purity lyophilized saccharide preparations. As to the method:
These high-purity saccharide preparations were tested for reducing power with the Somogyi-Nelson method and their reducing powers were represented by DE (dextrose equivalent).

A further data set is described as follows: Solubility in water. The following applies: in 100 ml of 25° C. water; read-out: Solubility (as anhydride). The data set is classed as physicochemical. The protocol:
(8) Solubility (as anhydride)
Up to about 1 g each hydrous or anhydrous crystal was soluble in 100 ml of 25° C. water.

Data set [3] can be described thus: Acute toxicity in mice upon oral administration. The data set is classed as in vivo. The settings on record: mouse, in vivo, oral administration. As to the method:
(§1) Hydrous and anhydrous crystalline maltotetraosyl glucosides prepared by the method in Experiment B-1 were tested for acute toxicity in mice upon oral administration.

Another data set concerns mice. The data set can be described thus: Acute toxicity in mice upon oral administration. The format is in vivo. The settings on record: oral, maximum administrable doses. The protocol: as §1

Consider `OC[C@H]1O[C@H](O[C@H]2O[C@H](CO)[C@@H](O[C@H]3O[C@H](CO)[C@@H](O[C@H]4O[C@H](CO)[C@@H](O[C@H]5O[C@H](CO)[C@@H](O)[C@H](O)[C@H]5O)[C@H](O)[C@H]4O)[C@H](O)[C@H]3O)[C@H](O)[C@H]2O)[C@H](O)[C@@H](O)[C@@H]1O` [Example A-1, maltotetraosyl glucoside], for which, in data set [1], the Hygroscopicity result is reported as “no hygroscopicity”.
`OC[C@H]1O[C@H](O[C@H]2O[C@H](CO)[C@@H](O[C@H]3O[C@H](CO)[C@@H](O[C@H]4O[C@H](CO)[C@@H](O[C@H]5O[C@H](CO)[C@@H](O)[C@H](O)[C@H]5O)[C@H](O)[C@H]4O)[C@H](O)[C@H]3O)[C@H](O)[C@H]2O)[C@H](O)[C@@H](O)[C@@H]1O` [Example A-2, maltotetraosyl glucoside]: the Hygroscopicity result in data set [1] is listed as “substantially no hygroscopicity”.
In the case of `OC[C@H]1O[C@H](O[C@H]2O[C@H](CO)[C@@H](O[C@H]3O[C@H](CO)[C@@H](O[C@H]4O[C@H](CO)[C@@H](O[C@H]5O[C@H](CO)[C@@H](O)[C@H](O)[C@H]5O)[C@H](O)[C@H]4O)[C@H](O)[C@H]3O)[C@H](O)[C@H]2O)[C@H](O)[C@@H](O)[C@@H]1O` [Example A-3, maltotetraosyl glucoside], in data set [1], the Hygroscopicity entry was “substantially no hygroscopicity”.
Turning to `OC[C@H]1O[C@H](O[C@H]2O[C@H](CO)[C@@H](O[C@H]3O[C@H](CO)[C@@H](O[C@H]4O[C@H](CO)[C@@H](O[C@H]5O[C@H](CO)[C@@H](O)[C@H](O)[C@H]5O)[C@H](O)[C@H]4O)[C@H](O)[C@H]3O)[C@H](O)[C@H]2O)[C@H](O)[C@@H](O)[C@@H]1O` [Example A-4, maltotetraosyl glucoside], the “Water content after standing in a room” value in data set [1] (after conversion into hydrous crystal) is on record as “about 4%”. The Hygroscopicity result in data set [1] is “exhibited hygroscopicity”.
As to `OC[C@H]1O[C@H](O[C@H]2O[C@H](CO)[C@@H](O[C@H]3O[C@H](CO)[C@@H](O[C@H]4O[C@H](CO)[C@@H](O[C@H]5O[C@H](CO)[C@@H](O)[C@H](O)[C@H]5O)[C@H](O)[C@H]4O)[C@H](O)[C@H]3O)[C@H](O)[C@H]2O)[C@H](O)[C@@H](O)[C@@H]1O` [Example A-5, maltotetraosyl glucoside], the Hygroscopicity result in data set [1] is “substantially no hygroscopicity”.
Turning to `OC[C@H]1O[C@H](O[C@H]2O[C@H](CO)[C@@H](O[C@H]3O[C@H](CO)[C@@H](O)[C@H](O)[C@H]3O)[C@H](O)[C@H]2O)[C@H](O)[C@@H](O)[C@@H]1O` [PI, α-glucosyl trehalose (or α-maltosyl glucoside)], the “DE (dextrose equivalent), reducing power” value in data set [2] worked out at 0.83.
Take `OC[C@H]1O[C@H](O[C@H]2O[C@H](CO)[C@@H](O[C@H]3O[C@H](CO)[C@@H](O[C@H]4O[C@H](CO)[C@@H](O)[C@H](O)[C@H]4O)[C@H](O)[C@H]3O)[C@H](O)[C@H]2O)[C@H](O)[C@@H](O)[C@@H]1O` [PII, α-maltosyl trehalose (or α-maltotriosyl glucoside)]: in data set [2], the “DE (dextrose equivalent), reducing power” value was 0.35.
With `OC[C@H]1O[C@H](O[C@H]2O[C@H](CO)[C@@H](O[C@H]3O[C@H](CO)[C@@H](O[C@H]4O[C@H](CO)[C@@H](O[C@H]5O[C@H](CO)[C@@H](O)[C@H](O)[C@H]5O)[C@H](O)[C@H]4O)[C@H](O)[C@H]3O)[C@H](O)[C@H]2O)[C@H](O)[C@@H](O)[C@@H]1O` [PIII, α-maltotriosyl trehalose (or α-maltotetraosyl glucoside)], in data set [2], the “DE (dextrose equivalent), reducing power” value is 0.10.
The same measure, in the same setting: the value for `OC[C@H]1O[C@H](O[C@H]2O[C@H](CO)[C@@H](O[C@H]3O[C@H](CO)[C@@H](O[C@H]4O[C@H](CO)[C@@H](O[C@H]5O[C@H](CO)[C@@H](O[C@H]6O[C@H](CO)[C@@H](O)[C@H](O)[C@H]6O)[C@H](O)[C@H]5O)[C@H](O)[C@H]4O)[C@H](O)[C@H]3O)[C@H](O)[C@H]2O)[C@H](O)[C@@H](O)[C@@H]1O` [PIV, α-maltotetraosyl trehalose (or α-maltopentaosyl glucoside)] was 0.27; that for `OC[C@H]1O[C@H](O[C@H]2O[C@H](CO)[C@@H](O[C@H]3O[C@H](CO)[C@@H](O[C@H]4O[C@H](CO)[C@@H](O[C@H]5O[C@H](CO)[C@@H](O[C@H]6O[C@H](CO)[C@@H](O[C@H]7O[C@H](CO)[C@@H](O)[C@H](O)[C@H]7O)[C@H](O)[C@H]6O)[C@H](O)[C@H]5O)[C@H](O)[C@H]4O)[C@H](O)[C@H]3O)[C@H](O)[C@H]2O)[C@H](O)[C@@H](O)[C@@H]1O` [PV, α-maltopentaosyl trehalose (or α-maltohexaosyl glucoside)] was 0.23.
With `OC[C@H]1O[C@H](O[C@H]2O[C@H](CO)[C@@H](O[C@H]3O[C@H](CO)[C@@H](O[C@H]4O[C@H](CO)[C@@H](O[C@H]5O[C@H](CO)[C@@H](O)[C@H](O)[C@H]5O)[C@H](O)[C@H]4O)[C@H](O)[C@H]3O)[C@H](O)[C@H]2O)[C@H](O)[C@@H](O)[C@@H]1O` [hydrous crystal, O-α-D-glucopyranosyl-(1→4)-O-α-D-glucopyranosyl-(1→4)-O-α-D-glucopyranosyl-(1→4)-α-D-glucopyranosyl α-D-glucopyranoside], the solubility in “Solubility in water” is about 10 mg/mL (≈ 12.1 mM). Besides, the LD50 in data set [3] is at least 50000 mg/kg. In addition, in the data set with mice, the Mortality result is given as “no mouse was died”.

A word on the solubility: it is the concentration that dissolves in the medium under given conditions. As usually defined, the LD50 is the dose expected to kill half of the subjects tested.
